# Several values for one entry are separate records, joined by “and”; a condition that tells them apart may be missing. Equal entries are not always repeated.
# How the values were obtained:
# Cell Line 2 = assay: N-glycan oligosaccharide profiling, Cell Line 2 (DVD 1) shake flasks (Example 2); type: cell-based, Chinese Hamster; conditions: 50 mM supplement vs control
# Protocol: Two recombinant Chinese Hamster Ovary (CHO) cell lines expressing two different recombinant glycoproteins were evaluated in two different cultures vessels (shaker flasks and 3 L laboratory scale bioreactors). Cell Line 1 expressed Antibody 1, Cell Line 2 expressed Dual Variable Domain Immunoglobulin 1 (DVD 1) and Cell Line 3 expressed Antibody 2. Antibodies 1 and 2 are IgG1 proteins, and DVD 1 is an immunoglobulin with two variable domains as documented previously (Wu C. et al., (2007) Nat. Biotechnol 25(11):1290-1297). All cell lines were of CHO DUX-B11 origin based on a dhfr (dihydrofolate reductase) expression system. All cell lines were cultured in the same chemically defined basal media. Cell lines 1 and 2 were fed with the same chemically-defined feed media, but Cell Line 1 was fed media that was formulated at a 50% higher concentration. Each of the respective media were supplemented with either sucrose or tagatose to evaluate their potential impact on the resulting N-glycan oligosaccharide profile. All sugars were purchased from Sigma-Aldrich (St. Louis, Mo.). In preparation of the cultures, the cell lines were serially expanded through separate seed train inoculums to generate enough cells for inoculation.
# Purified antibodies subjected to additional analytical characterization were purified using MabSelect™ Protein A (GE Healthcare, Piscataway, N.J.) using a low pH, step elution gradient, followed by buffer exchange using Corning Lifesciences (Tewksbury, Mass.) Spin Concentrator X UF columns according to the manufacturers' recommended procedures.
# Approximately 200 μg of Protein A purified samples from Cell Lines 1 and 2 were treated with N-glycanase at 37° C. overnight to remove the N-glycans from the protein. The protein was precipitated and the supernatant was taken for subsequent chemical derivatization of the reducing end of the released glycans with 2-aminobenzamide (2-AB) dye. Following the derivatization step, the excess label was removed using clean up cartridges and the samples were analyzed using normal phase HPLC with fluorescent detection. Mobile phase A was 100% acetonitrile and mobile phase B was 50 mM ammonium formate pH 4.4. The glycans were eluted from a polyamide column (Prozyme, Hayward, Calif.) using a shallow gradient. The labeled glycans were detected using a fluorescence detector with an excitation wavelength of 330 nm and an emission wavelength of 420 nm.
# Experimental results are expressed as mean±SD for those results generated from at least three independent cultures. Experimental results are expressed as the measured value for those results generated from less than three independent cultures. Results were evaluated for statistical significance through 2-sided t-tests, with a requirement of p<0.05 relative to the unsupplemented control conditions.
# Cell Line 2 was cultured in shake flasks in fed batch mode after an abbreviated seed train. Sucrose and tagatose were supplemented into chemically-defined basal and feed media at concentrations of 1, 30, and 50 mM, and process performance results were compared to unsupplemented control conditions. The viable cell density (VCD), viability, and harvest titer results are shown in FIGS. 15A-15C for the sucrose supplemented cultures and FIGS. 16A-16C for the tagatose supplemented cultures.
# Cell Line 1 = assay: Shake flask fedbatch culture of Cell Line 1 (Antibody 1), cell culture performance (Example 2); type: cell-based, Chinese Hamster; conditions: for Antibody 1 harvest titer: 1, 10, 30, 50, 70 mM vs control
# Protocol: Two recombinant Chinese Hamster Ovary (CHO) cell lines expressing two different recombinant glycoproteins were evaluated in two different cultures vessels (shaker flasks and 3 L laboratory scale bioreactors). Cell Line 1 expressed Antibody 1, Cell Line 2 expressed Dual Variable Domain Immunoglobulin 1 (DVD 1) and Cell Line 3 expressed Antibody 2. Antibodies 1 and 2 are IgG1 proteins, and DVD 1 is an immunoglobulin with two variable domains as documented previously (Wu C. et al., (2007) Nat. Biotechnol 25(11):1290-1297). All cell lines were of CHO DUX-B11 origin based on a dhfr (dihydrofolate reductase) expression system. All cell lines were cultured in the same chemically defined basal media. Cell lines 1 and 2 were fed with the same chemically-defined feed media, but Cell Line 1 was fed media that was formulated at a 50% higher concentration. Each of the respective media were supplemented with either sucrose or tagatose to evaluate their potential impact on the resulting N-glycan oligosaccharide profile. All sugars were purchased from Sigma-Aldrich (St. Louis, Mo.). In preparation of the cultures, the cell lines were serially expanded through separate seed train inoculums to generate enough cells for inoculation. […] [table] Viable cell density (VCD) and cell viability values were measured through trypan blue exclusion via Cedex automated cell counters (Roche Applied Science, Indianapolis, Ind.), glucose and lactate values were measured with a ABL-805 (Radiometer Medical, Denmark) blood gas analyzer. Offline pH, dissolved oxygen (DO), and pCO2 measurements were performed with an ABL-805 (Radiometer Medical, Denmark) blood gas analyzer. Osmolality was measured on a Multi-Osmette 2430 osmometer (Precision Systems, Natick, Mass.). Antibody titers were measured from crude cell culture harvests on a Poros A™ (Life Technologies, Carlsbad, Calif.) affinity column using an Agilent (Santa Clara, Calif.) 1200 Series HPLC, or equivalent, operating with a low pH, step elution gradient with detection at 280 nm. Absolute concentrations were assigned with respect to reference standard calibration curves. Experimental results are expressed as mean±SD for those results generated from at least three independent cultures. Experimental results are expressed as the measured value for those results generated from less than three independent cultures. Results were evaluated for statistical significance through 2-sided t-tests, with a requirement of p<0.05 relative to the unsupplemented control conditions. Cell Line 1 was cultured in shake flasks in fedbatch mode after an abbreviated seed train. Sucrose and tagatose were supplemented into chemically-defined basal and feed media at concentrations of 1, 10, 30, 50, and 70 mM, and compared to unsupplemented control conditions. The viable cell density (VCD), viability, and harvest titer results are shown in FIGS. 13A-13C for the sucrose supplemented cultures and FIGS. 14A-14C for the tagatose supplemented cultures.
SMILES,cumulative increase in overall mannosylated N-glycans (Cell Line 2) [%],decrease in NA1F species (Cell Line 2) [%],decrease in NGA2F species (Cell Line 2) [%],increase in Man 5 species (Cell Line 2),increase in Man 6 species (Cell Line 2) [%],increase in NGA2F-GlcNAc species (Cell Line 2) [%],overall decrease in the fucosylation level (Cell Line 2) [%],peak VCD (Cell Line 1; 50 mM and 70 mM),increase in harvest titer (Cell Line 1; 50 mM vs control) [%],Antibody 1 harvest titer (Cell Line 1),"viable cell density over time (Cell Line 1; 1, 10 and 30 mM)","cell viability after process day 10 (Cell Line 1; 10, 30, 50 and 70 mM)",viable cell density over time (Cell Line 1; 1 mM and 10 mM),decrease in harvest titer (Cell Line 1; 70 mM vs control) [%],"cell viability after process day 10 (Cell Line 1; 30, 50 and 70 mM)","peak VCD (Cell Line 1; 30, 50 and 70 mM)"
OC[C@H]1O[C@@](CO)(O[C@H]2O[C@H](CO)[C@@H](O)[C@H](O)[C@H]2O)[C@@H](O)[C@@H]1O [sucrose],8,1,20,7% and 3%,1,8,13,reduction in peak VCD,2,essentially indistinguishable from the control conditions,remained essentially the same,died slower than the control,,,,
O=C(CO)[C@@H](O)[C@@H](O)[C@H](O)CO [tagatose],4,1,9,,,5,5,,,essentially indistinguishable,,,remained similar or higher,9,died slower than the control,reduction in peak VCD
